# In patent US20210161894A1, “Compositions and Methods for Modulating Liver Endothelial Cell Fenestrations” (priority 2017, published 2021):
# Tests used:
# [1] = tested on: isolated LSECs (liver sinusoidal endothelial cells); assay: SEM of fenestrations in isolated LSECs from young and old mice after 30 min drug treatment (second Example 7); format: cell-based; settings: for Diameter / Frequency / Porosity: 30 min
# LSEC fenestrations = assay: SEM of LSEC fenestrations after drug treatments (Example 2, FIGS. 1-6); format: cell-based, mice
# In short: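 Liver cells from young (3-4) and old (20-24 months) C57B16 mice, n=3 each, incubated 30 mins at 37° C, 5% CO2 in RPMI with or without drug; livers perfusion-fixed in 1% glutaraldehyde/4% para-formaldehyde. Blinded SEM at 10,000×; values are mean±SD of 8 images, 616-3312 fenestrations per treatment.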
# fenestrations [2] = settings: young (7 month) and old (24 month) mice; cited from earlier work
# fenestrations [3] = settings: young mice; cited from earlier work
smiles,measurement,setting,value
"COc1cc(CC(C)N)c(OC)cc1I (stereo not shown) [DOI, 2,5-Dimethoxy-4-iodoamphetamine]","Change in Frequency, Old","[1]; old mice, 0.1 μg/ml",↑ (ns)
same,Diameter,"[1]; old mice, 0.1 μg/ml",135.27 ± 29.71 nm
same,Frequency,"[1]; old mice, 0.1 μg/ml",3.06 ± 1.00 no/area
same,Porosity,"[1]; old mice, 0.1 μg/ml",4.44 ± 1.07 %
same,Diameter,"[1]; old mice, 1 μg/ml",155.28 ± 15.33 nm
same,Frequency,"[1]; old mice, 1 μg/ml",0.67 ± 0.31 no/area
same,Porosity,"[1]; old mice, 1 μg/ml",1.31 ± 0.47%
same,effect on porosity and fenestration frequency (summary in words),[1]; young and old LSECs,LSECs from old mice only were responsive
same,Diameter,"[1]; young mice, 0.1 μg/ml",133.57 ± 9.78 nm
same,Frequency,"[1]; young mice, 0.1 μg/ml",3.40 ± 1.56 no/area
same,Porosity,"[1]; young mice, 0.1 μg/ml",4.91 ± 2.02%
same,Diameter,"[1]; young mice, 1 μg/ml",135.64 ± 21.21 nm
same,Frequency,"[1]; young mice, 1 μg/ml",0.83 ± 0.75 no/area
same,Porosity,"[1]; young mice, 1 μg/ml",1.45 ± 1.27%
same,change in fenestration porosity,"LSEC fenestrations; old mice, Cytochalasin D 0.5 μg/ml, DOI 0.1 μg/ml, 7KC 9 μM, Amlodipine 20 ng/ml",increased porosity
same,change in fenestration frequency,"LSEC fenestrations; old mice, Cytochalasin D 0.5 μg/ml, DOI 0.1 μg/ml, 7KC 9 μM, Bosentan 0.1 μM, Sildenafil 300 ng/ml, Amlodipine 20 ng/ml",increased
same,sieve plates and fenestration density on SEM images,LSEC fenestrations; young and old mice,maintained sieve plates and increased fenestration density
same,fenestrations after in vivo administration,fenestrations [2],increased fenestrations only in young (7 month) but not old (24 month) mice
same,fenestration porosity and diameter (previously reported),fenestrations [3],increase fenestration porosity in young mice without any significant effects on fenestration diameter
